Source: patent US8802597B2, “Herbicidal pyrimidines” (E I du Pont de Nemours and Company, priority 2003, dated 2014)

Key:
Experiment in all cases: Test C pre/postemergence
Type in all cases: in vivo
[1] = test system: Surinam grass (Brachiaria decumbens); conditions: for Surinam Grass plant response rating: scale 0 to 100 (0 no effect, 100 complete control)
Summary of the method: (§1)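 Percent control is a visual rating (0 none, 100 complete) taken against untreated plants after 12 to 14 days of greenhouse growth. Applications were made preemergence to seeded pots and postemergence to plants at the 1- to 4-leaf stage, in a non-phytotoxic surfactant-containing solvent.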

[2] = test system: cocklebur (Xanthium strumarium); conditions: for Cocklebur plant response rating: scale 0 to 100 (0 no effect, 100 complete control)
Summary of the method: as §1

[3] = test system: common (oilseed) sunflower (Helianthus annuus); conditions: Preemergence
Summary of the method: as §1

[4] = test system: common ragweed (Ambrosia elatior); conditions: for Ragweed plant response rating: scale 0 to 100 (0 no effect, 100 complete control)
Summary of the method: as §1

corn (Zea mays) = conditions: for Corn plant response rating: scale 0 to 100 (0 no effect, 100 complete control)
Summary of the method: as §1

[5] = test system: crabgrass (Digitaria sanguinalis); conditions: Postemergence; for Crabgrass plant response rating: scale 0 to 100 (0 no effect, 100 complete control); for Plant response rating, Crabgrass: scale 0 to 100
Summary of the method: as §1

[6] = test system: goosegrass (Eleusine indica); conditions: for Goosegrass plant response rating: scale 0 to 100 (0 no effect, 100 complete control)
Summary of the method: as §1

kochia (Kochia scoparia) = conditions: for Kochia plant response rating: scale 0 to 100 (0 no effect, 100 complete control)
Summary of the method: as §1

[7] = test system: lambsquarters (Chenopodium album); conditions: for Lambsquarters plant response rating: scale 0 to 100 (0 no effect, 100 complete control)
Summary of the method: as §1

[8] = test system: pigweed (Amaranthus retroflexus); conditions: for Pigweed plant response rating: scale 0 to 100 (0 no effect, 100 complete control)
Summary of the method: as §1

[9] = test system: velvetleaf (Abutilon theophrasti); conditions: for Velvetleaf plant response rating: scale 0 to 100 (0 no effect, 100 complete control)
Summary of the method: as §1

[10] = test system: yellow nutsedge (Cyperus esculentus); conditions: for Nutsedge, Yellow plant response rating: scale 0 to 100 (0 no effect, 100 complete control)
Summary of the method: as §1

[11] = Postemergence, 250 g ai/ha, scale 0 to 100
[12] = Postemergence, 500 g ai/ha, scale 0 to 100
[13] = Preemergence, 62 g ai/ha, scale 0 to 100, 0 no effect, 100 complete control
[14] = Preemergence, 125 g ai/ha, scale 0 to 100
[15] = Preemergence, 250 g ai/ha, scale 0 to 100
[16] = Preemergence, 500 g ai/ha, scale 0 to 100

## COC(=O)c1nc(C2CC2C)nc(N)c1Br (stereo not shown) [Compound 28]
[1]; Postemergence, 62 g ai/ha
  Surinam Grass plant response rating: 0
[1]; Postemergence, 125 g ai/ha
  Surinam Grass plant response rating: 0
[1]; [11]
  Plant response rating, Surinam Grass: 0
[1]; [12]
  Plant response rating, Surinam Grass: 0
[1]; [13]
  Plant response rating, Surinam Grass: 0
[1]; [14]
  Plant response rating, Surinam Grass: 0
[1]; [15]
  Plant response rating, Surinam Grass: 0
[1]; [16]
  Plant response rating, Surinam Grass: 0
[2]; Postemergence, 62 g ai/ha
  Cocklebur plant response rating: 85
[2]; Postemergence, 125 g ai/ha
  Cocklebur plant response rating: 95
[2]; [11]
  Plant response rating, Cocklebur: 95
[2]; [12]
  Plant response rating, Cocklebur: 100
[2]; [13]
  Plant response rating, Cocklebur: 90
[2]; [14]
  Plant response rating, Cocklebur: 95
[2]; [15]
  Plant response rating, Cocklebur: 95
[2]; [16]
  Plant response rating, Cocklebur: 100
[3]; 62 g ai/ha, scale 0 to 100, 0 no effect, 100 complete control
  Plant response rating, Sunflower: 45
[3]; 125 g ai/ha, scale 0 to 100
  Plant response rating, Sunflower: 50
[3]; 250 g ai/ha, scale 0 to 100
  Plant response rating, Sunflower: 100
[3]; 500 g ai/ha, scale 0 to 100
  Plant response rating, Sunflower: 100
[4]; Postemergence, 62 g ai/ha
  Ragweed plant response rating: 65
[4]; Postemergence, 125 g ai/ha
  Ragweed plant response rating: 80
[4]; [11]
  Plant response rating, Ragweed: 90
[4]; [12]
  Plant response rating, Ragweed: 95
[4]; [13]
  Plant response rating, Ragweed: 65
[4]; [14]
  Plant response rating, Ragweed: 95
[4]; [15]
  Plant response rating, Ragweed: 100
[4]; [16]
  Plant response rating, Ragweed: 100
Corn (Zea mays); Postemergence, 62 g ai/ha
  Corn plant response rating: 0
Corn (Zea mays); Postemergence, 125 g ai/ha
  Corn plant response rating: 0
Corn (Zea mays); [11]
  Plant response rating, Corn: 0
Corn (Zea mays); [12]
  Plant response rating, Corn: 0
Corn (Zea mays); [13]
  Plant response rating, Corn: 0
Corn (Zea mays); [14]
  Plant response rating, Corn: 0
Corn (Zea mays); [15]
  Plant response rating, Corn: 0
Corn (Zea mays); [16]
  Plant response rating, Corn: 0
[5]; 62 g ai/ha
  Crabgrass plant response rating: 0
[5]; 125 g ai/ha
  Crabgrass plant response rating: 0
[5]; 250 g ai/ha
  Plant response rating, Crabgrass: 0
[5]; 500 g ai/ha
  Plant response rating, Crabgrass: 20
[6]; Postemergence, 62 g ai/ha
  Goosegrass plant response rating: 0
[6]; Postemergence, 125 g ai/ha
  Goosegrass plant response rating: 0
[6]; [11]
  Plant response rating, Goosegrass: 0
[6]; [12]
  Plant response rating, Goosegrass: 15
[6]; [13]
  Plant response rating, Goosegrass: 0
[6]; [14]
  Plant response rating, Goosegrass: 0
[6]; [15]
  Plant response rating, Goosegrass: 0
[6]; [16]
  Plant response rating, Goosegrass: 20
Kochia (Kochia scoparia); Postemergence, 62 g ai/ha
  Kochia plant response rating: 75
Kochia (Kochia scoparia); Postemergence, 125 g ai/ha
  Kochia plant response rating: 85
Kochia (Kochia scoparia); [11]
  Plant response rating, Kochia: 95
Kochia (Kochia scoparia); [12]
  Plant response rating, Kochia: 95
Kochia (Kochia scoparia); [13]
  Plant response rating, Kochia: 0
Kochia (Kochia scoparia); [14]
  Plant response rating, Kochia: 80
Kochia (Kochia scoparia); [15]
  Plant response rating, Kochia: 90
Kochia (Kochia scoparia); [16]
  Plant response rating, Kochia: 100
[7]; Postemergence, 62 g ai/ha
  Lambsquarters plant response rating: 60
[7]; Postemergence, 125 g ai/ha
  Lambsquarters plant response rating: 75
[7]; [11]
  Plant response rating, Lambsquarters: 85
[7]; [12]
  Plant response rating, Lambsquarters: 95
[7]; [13]
  Plant response rating, Lambsquarters: 95
[7]; [14]
  Plant response rating, Lambsquarters: 100
[7]; [15]
  Plant response rating, Lambsquarters: 100
[7]; [16]
  Plant response rating, Lambsquarters: 100
[8]; Postemergence, 62 g ai/ha
  Pigweed plant response rating: 30
[8]; Postemergence, 125 g ai/ha
  Pigweed plant response rating: 35
[8]; [11]
  Plant response rating, Pigweed: 60
[8]; [12]
  Plant response rating, Pigweed: 75
[8]; [13]
  Plant response rating, Pigweed: 80
[8]; [14]
  Plant response rating, Pigweed: 95
[8]; [15]
  Plant response rating, Pigweed: 100
[8]; [16]
  Plant response rating, Pigweed: 100
[9]; Postemergence, 62 g ai/ha
  Velvetleaf plant response rating: 45
[9]; Postemergence, 125 g ai/ha
  Velvetleaf plant response rating: 50
[9]; [11]
  Plant response rating, Velvetleaf: 70
[9]; [12]
  Plant response rating, Velvetleaf: 75
[9]; [13]
  Plant response rating, Velvetleaf: 50
[9]; [14]
  Plant response rating, Velvetleaf: 55
[9]; [15]
  Plant response rating, Velvetleaf: 95
[9]; [16]
  Plant response rating, Velvetleaf: 100
[10]; Postemergence, 62 g ai/ha
  Nutsedge, Yellow plant response rating: 0
[10]; Postemergence, 125 g ai/ha
  Nutsedge, Yellow plant response rating: 0
[10]; [11]
  Plant response rating, Nutsedge, Yellow: 0
[10]; [12]
  Plant response rating, Nutsedge, Yellow: 0
[10]; [13]
  Plant response rating, Nutsedge, Yellow: 0
[10]; [14]
  Plant response rating, Nutsedge, Yellow: 0
[10]; [15]
  Plant response rating, Nutsedge, Yellow: 0
[10]; [16]
  Plant response rating, Nutsedge, Yellow: 0
